Measured values reported in patent publication US11214803B2, “Modulators of YAP1 expression” (Ionis Pharmaceuticals, Inc., priority 2019, dated 2022).
Strand notation (5' to 3'): a small letter for the sugar, then the base; units joined by * are phosphorothioate-linked, units joined directly phosphodiester-linked; [ ] holds rarer units or linkages, { } end groups; capitals alone tell only the bases. k = constrained ethyl (cEt); [5mC] = 5-methylcytosine; d = 2'-deoxy (DNA)

System: Yap1 mRNA
Test: Antisense inhibition of human Yap1 in A-431 cells by cEt gapmers, single dose (Example 3, RTS36584)
Assay type: cell-based
Outline: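 Values are % untreated control: Yap1 mRNA by quantitative RT-PCR (RTS36584), normalized to total RNA by RiboGreen. Before RNA isolation, 5,000 A-431 cells per well were exposed ~48 h to 2,000 nM 16-mer cEt gapmer, delivered without transfection reagent.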

[1] = Table 10, A-431 cells, 5,000 cells per well, free uptake, 2,000 nM oligonucleotide, approx. 48 hours, primer probe set RTS36584, Yap1 mRNA normalized to RIBOGREEN, percent of untreated control
[2] = Table 35, Yap1 mRNA as percent of untreated control, 3-10-3 cEt gapmers targeting SEQ ID NO: 1 and 2, single dose
[3] = Table 28, Yap1 mRNA as percent of untreated control, 3-10-3 cEt gapmers targeting SEQ ID NO.: 1, and 2
[4] = Table 34, Yap1 mRNA as percent of untreated control, 3-10-3 cEt gapmers targeting SEQ ID NO: 1 and 2, single dose
[5] = Table 8, A-431 cells, 5,000 cells per well, free uptake, 2,000 nM, approximately 48 hours, RTS36584, normalized to RIBOGREEN, Yap1 mRNA relative to untreated control cells
[6] = Table 27, Yap1 mRNA by 3-10-3 cEt gapmers targeting SEQ ID NO.: 1, and 2, percent of untreated control
[7] = Table 9, A-431 cells, 5,000 cells per well, free uptake, 2,000 nM, approximately 48 hours, RTS36584, normalized to RIBOGREEN, Yap1 mRNA relative to untreated control cells
[8] = Table 12, A-431 cells, 5,000 cells per well, free uptake, 2,000 nM modified oligonucleotide, approx. 48 hours, RTS36584, normalized to RIBOGREEN, Yap1 mRNA relative to untreated control cells
[9] = Table 29, Yap1 mRNA as percent of untreated control, 3-10-3 cEt gapmers targeting SEQ ID NO.: 1, and 2
[10] = Table 13, A-431 cells, 5,000 cells per well, free uptake, 2,000 nM modified oligonucleotide, approx. 48 hours, RTS36584, normalized to RIBOGREEN, Yap1 mRNA relative to untreated control cells
[11] = Table 11, A-431 cells, 5,000 cells per well, free uptake, 2,000 nM oligonucleotide, approx. 48 hours, primer probe set RTS36584, Yap1 mRNA normalized to RIBOGREEN, percent of untreated control

958772 (antisense k[5mC]*kA*kA*d[5mC]*dA*dA*dA*d[5mC]*dA*dT*dA*dG*dT*kT*kA*k[5mC]) [Compound 958772]
YAP1 (% UTC) [1]: 61 % UTC

1075317 (antisense kG*kT*kA*dT*dT*d[5mC]*dG*d[5mC]*d[5mC]*dT*d[5mC]*d[5mC]*dT*kG*k[5mC]*kA) [compound 1075317]
YAP1 (% UTC) [2]: 27 % UTC

1075630 (antisense kT*kA*kT*dA*dA*d[5mC]*d[5mC]*dA*dA*dA*dT*dG*d[5mC]*k[5mC]*kG*k[5mC]) [compound 1075630]
YAP1 (% UTC) [3]: 60 % UTC

1075892 (antisense k[5mC]*kA*k[5mC]*d[5mC]*dA*dA*dT*dA*d[5mC]*d[5mC]*dA*dA*dA*kG*kT*k[5mC]) [compound 1075892]
YAP1 (% UTC) [4]: 54 % UTC

958390 (antisense kG*k[5mC]*kG*dA*dA*dG*dG*dT*dG*d[5mC]*dG*dG*dA*kG*k[5mC]*kG) [Compound 958390]
YAP1 (% UTC) [5]: 145 % UTC

1075405 (antisense k[5mC]*kT*kA*dT*dA*dT*dA*dA*d[5mC]*d[5mC]*dT*dG*dA*kA*k[5mC]*kT) [compound 1075405]
YAP1 (% UTC) [6]: 84 % UTC

1076172 (kT*kA*kT*dT*dA*dG*dT*dA*dA*dA*dG*dA*dG*kT*kA*k[5mC]; antisense) [compound 1076172]
YAP1 (% UTC) (Table 26, Yap1 mRNA by 3-10-3 cEt gapmers targeting SEQ ID NO.: 1, and 2, percent of untreated control): 98 % UTC

958701 (antisense kT*kT*kA*dA*dA*d[5mC]*dT*dA*dG*dG*d[5mC]*dA*d[5mC]*kA*kT*kT) [Compound 958701]
YAP1 (% UTC) [7]: 98 % UTC

958621 (antisense kA*kA*k[5mC]*dG*dA*dG*dG*dG*dT*d[5mC]*dA*dA*dG*k[5mC]*k[5mC]*kT) [Compound 958621]
YAP1 (% UTC) [7]: 29 % UTC

1076269 (kG*kA*k[5mC]*dG*dA*dA*dA*dA*dA*dT*dA*dT*dT*k[5mC]*kT*kT; antisense) [compound 1076269]
YAP1 (% UTC) [6]: 28 % UTC

958619 (antisense kT*kG*kG*dG*dT*d[5mC]*dT*dA*dG*d[5mC]*d[5mC]*dA*dA*kG*kA*kG) [Compound 958619]
YAP1 (% UTC) [8]: 71 % UTC

958601 (k[5mC]*k[5mC]*kT*dT*dT*dA*dA*dA*dG*dG*d[5mC]*dA*d[5mC]*kT*kA*k[5mC]; antisense) [Compound 958601]
YAP1 (% UTC) [7]: 17 % UTC

958742 (antisense kA*kG*k[5mC]*dA*dA*dT*dA*dT*dG*dG*dT*dA*dT*kT*kA*kG) [Compound 958742]
YAP1 (% UTC) [1]: 4 % UTC

958749 (antisense k[5mC]*k[5mC]*kA*d[5mC]*dA*dA*dG*dG*dG*d[5mC]*dA*dG*dT*kA*k[5mC]*kG) [Compound 958749]
YAP1 (% UTC) [8]: 51 % UTC

1075887 (antisense kT*kA*kT*dT*dA*d[5mC]*dT*dT*dG*dA*dT*dT*dG*kA*k[5mC]*kA) [compound 1075887]
YAP1 (% UTC) [9]: 10 % UTC

958629 (antisense k[5mC]*k[5mC]*k[5mC]*dG*dA*dG*dT*dG*dG*dG*d[5mC]*dT*dA*kA*k[5mC]*kT) [Compound 958629]
YAP1 (% UTC) [8]: 128 % UTC

1074286 (antisense kT*kG*kA*dT*dT*d[5mC]*dT*d[5mC]*dT*dG*dG*dT*dT*k[5mC]*kA*kT) [compound 1074286]
YAP1 (% UTC) [3]: 32 % UTC

1075348 (antisense kT*k[5mC]*kA*d[5mC]*dA*dA*dA*dA*d[5mC]*d[5mC]*d[5mC]*dT*dA*k[5mC]*kA*k[5mC]) [compound 1075348]
YAP1 (% UTC) [4]: 96 % UTC

1074701 (antisense kG*kT*kG*dT*dA*dA*dG*dA*d[5mC]*dA*dA*dG*dT*k[5mC]*kT*kT) [compound 1074701]
YAP1 (% UTC) [6]: 17 % UTC

958800 (antisense kT*k[5mC]*kG*dA*dT*dA*dA*dT*dA*dT*dA*dT*dG*kG*k[5mC]*kA) [Compound 958800]
YAP1 (% UTC) [10]: 22 % UTC

958791 (antisense k[5mC]*kA*kT*dA*dA*dG*dA*dA*dA*dA*dG*dA*d[5mC]*kG*kA*k[5mC]) [Compound 958791]
YAP1 (% UTC) [7]: 123 % UTC

958789 (antisense kT*kA*k[5mC]*dT*dA*dT*dA*dT*dA*dA*dT*dA*d[5mC]*k[5mC]*k[5mC]*kT) [Compound 958789]
YAP1 (% UTC) [8]: 17 % UTC

1074126 (k[5mC]*kT*kG*dG*d[5mC]*dG*dG*d[5mC]*dT*dG*d[5mC]*dG*d[5mC]*k[5mC]*kT*k[5mC]; antisense) [compound 1074126]
YAP1 (% UTC) [3]: 111 % UTC

958759 (antisense kG*k[5mC]*k[5mC]*dT*dA*dT*d[5mC]*dG*d[5mC]*d[5mC]*d[5mC]*d[5mC]*dA*kA*kG*k[5mC]) [Compound 958759]
YAP1 (% UTC) [8]: 61 % UTC

958659 (kG*kT*kT*dG*dT*dA*dT*dT*dA*d[5mC]*dT*d[5mC]*dT*k[5mC]*k[5mC]*kA; antisense) [Compound 958659]
YAP1 (% UTC) [8]: 2 % UTC

1076559 (kA*kA*k[5mC]*dA*dA*dA*dT*dA*dT*dA*dG*dT*dT*kA*kG*k[5mC]; antisense) [compound 1076559]
YAP1 (% UTC) [9]: 74 % UTC

958786 (antisense kT*kA*kT*dG*dT*d[5mC]*d[5mC]*dT*dA*d[5mC]*dT*dT*dT*k[5mC]*k[5mC]*k[5mC]) [Compound 958786]
YAP1 (% UTC) [7]: 10 % UTC

958451 (antisense k[5mC]*kA*k[5mC]*dG*dA*dT*d[5mC]*dT*dG*dA*dT*dG*d[5mC]*k[5mC]*k[5mC]*kG) [Compound 958451]
YAP1 (% UTC) [7]: 10 % UTC

958480 (antisense kA*kA*k[5mC]*dT*dG*dG*d[5mC]*dT*dT*dA*dT*dG*dG*kA*kA*kA) [Compound 958480]
YAP1 (% UTC) [10]: 24 % UTC

958551 (k[5mC]*kT*k[5mC]*d[5mC]*dT*dG*dT*dA*dG*dA*d[5mC]*dA*d[5mC]*kA*kT*kA; antisense) [Compound 958551]
YAP1 (% UTC) [7]: 5 % UTC

1076468 (k[5mC]*kA*kT*dT*dA*d[5mC]*dT*dA*d[5mC]*dT*dA*dA*dG*kA*kG*kT; antisense) [compound 1076468]
YAP1 (% UTC) [4]: 91 % UTC

958383 (antisense k[5mC]*kT*kT*d[5mC]*d[5mC]*dT*d[5mC]*dT*dG*d[5mC]*dG*d[5mC]*dG*k[5mC]*k[5mC]*k[5mC]) [Compound 958383]
YAP1 (% UTC) [5]: 96 % UTC

958421 (antisense k[5mC]*kT*k[5mC]*d[5mC]*dG*dT*dG*dG*dT*dG*dA*dT*d[5mC]*k[5mC]*k[5mC]*kA) [Compound 958421]
YAP1 (% UTC) [5]: 13 % UTC

958798 (antisense kT*kG*k[5mC]*dA*dG*dT*dA*dT*dA*dA*dT*dA*dT*k[5mC]*k[5mC]*kT) [Compound 958798]
YAP1 (% UTC) [11]: 3 % UTC

958752 (antisense kG*kA*kA*dT*dT*dT*dT*dT*dA*dG*dT*d[5mC]*d[5mC]*kA*kG*kT) [Compound 958752]
YAP1 (% UTC) [1]: 2 % UTC

958406 (antisense kT*kT*kT*d[5mC]*dA*dG*dT*dT*dA*dT*d[5mC]*dG*dG*k[5mC]*k[5mC]*k[5mC]) [Compound 958406]
YAP1 (% UTC) [5]: 29 % UTC

1075054 (antisense k[5mC]*kA*kA*dT*dA*dT*dA*dT*dA*d[5mC]*dT*dT*dG*kA*kT*k[5mC]) [compound 1075054]
YAP1 (% UTC) [3]: 48 % UTC

1076045 (kG*kT*kG*d[5mC]*dA*dA*dT*dA*dA*dA*dT*dA*dG*kT*kT*k[5mC]; antisense) [compound 1076045]
YAP1 (% UTC) [6]: 11 % UTC

958663 (k[5mC]*kT*kA*dT*dT*dA*dG*dG*dG*dA*d[5mC]*dT*dG*kA*kA*k[5mC]; antisense) [Compound 958663]
YAP1 (% UTC) [11]: 32 % UTC

958488 (kA*kG*kG*dA*dA*dT*dG*dG*d[5mC]*dA*dT*d[5mC]*d[5mC]*kA*kT*k[5mC]; antisense) [Compound 958488]
YAP1 (% UTC) [11]: 41 % UTC

1074862 (kT*kA*kT*dG*dA*dG*d[5mC]*dA*dT*dG*d[5mC]*dT*d[5mC]*kT*kT*kA; antisense) [compound 1074862]
YAP1 (% UTC) [3]: 56 % UTC

1074511 (kG*kA*kT*dA*d[5mC]*dA*dT*dT*d[5mC]*d[5mC]*dA*d[5mC]*dT*kA*k[5mC]*k[5mC]; antisense) [compound 1074511]
YAP1 (% UTC) [9]: 9 % UTC

1074261 (antisense k[5mC]*k[5mC]*kG*dA*dG*dT*dT*d[5mC]*dA*dT*d[5mC]*dA*dT*kA*kT*kT) [compound 1074261]
YAP1 (% UTC) [2]: 19 % UTC

958568 (kT*kA*kT*dG*dA*dG*dT*dG*dA*dT*d[5mC]*dA*dA*k[5mC]*k[5mC]*kT; antisense) [Compound 958568]
YAP1 (% UTC) [11]: 5 % UTC

958583 (kA*kG*k[5mC]*dT*dA*dA*dT*d[5mC]*dT*dG*d[5mC]*dT*dG*kA*kT*kA; antisense) [Compound 958583]
YAP1 (% UTC) [11]: 89 % UTC

1076277 (kG*k[5mC]*kT*dA*dA*dA*dA*d[5mC]*dA*dT*d[5mC]*dA*dG*kA*kT*kA; antisense) [compound 1076277]
YAP1 (% UTC) [2]: 24 % UTC
